Source: US8859557B2, “Substituted oxindole derivatives and their use as vasopressin receptor ligands” (Abbott GmbH & Co. KG, priority 2006, dated 2014)

Assays:
[1] = target: T1, human vasopressin V1b receptor (Homo sapiens, UniProt P47901); assay: Vasopressin V1b receptor binding assay; details: displacement of 3H-AVP, membranes of CHO-K1 cells with human V1b receptor
T1 construct: expressed in transfected cells; host or cells: CHO-K1 (cell line hV1b-3H2_CHO), membrane preparation
T1 sequence (P47901 1-424): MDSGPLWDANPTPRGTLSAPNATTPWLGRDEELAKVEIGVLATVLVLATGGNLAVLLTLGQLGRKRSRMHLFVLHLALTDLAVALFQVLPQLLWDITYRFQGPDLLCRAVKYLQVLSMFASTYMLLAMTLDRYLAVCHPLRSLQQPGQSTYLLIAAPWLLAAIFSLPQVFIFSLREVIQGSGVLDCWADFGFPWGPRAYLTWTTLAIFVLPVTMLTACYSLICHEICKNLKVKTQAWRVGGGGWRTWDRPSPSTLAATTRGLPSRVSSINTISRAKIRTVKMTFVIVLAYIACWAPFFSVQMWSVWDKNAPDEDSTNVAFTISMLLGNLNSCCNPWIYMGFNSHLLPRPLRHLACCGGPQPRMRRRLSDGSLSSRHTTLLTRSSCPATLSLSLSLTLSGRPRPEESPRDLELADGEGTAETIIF
Description: Methods for Determining the Biological Activity Vasopressin V1b Receptor Binding Assay: Substances:
This series of DMSO predilutions was diluted 1:10 with assay buffer. The substance concentration was again diluted 1:5 in the assay mixture (2% DMSO in the mixture).
All determinations were carried out as triplicate determinations.

[2] = target: T2, recombinant human oxytocin receptors (Homo sapiens, UniProt P30559); assay: Oxytocin receptor binding assay; details: selectivity for V1b over oxytocin receptor, quotient of Ki values
T2 construct: expressed in transfected cells; host or cells: HEK-293, transient expression; lysed and homogenized cells
T2 sequence (P30559 1-389): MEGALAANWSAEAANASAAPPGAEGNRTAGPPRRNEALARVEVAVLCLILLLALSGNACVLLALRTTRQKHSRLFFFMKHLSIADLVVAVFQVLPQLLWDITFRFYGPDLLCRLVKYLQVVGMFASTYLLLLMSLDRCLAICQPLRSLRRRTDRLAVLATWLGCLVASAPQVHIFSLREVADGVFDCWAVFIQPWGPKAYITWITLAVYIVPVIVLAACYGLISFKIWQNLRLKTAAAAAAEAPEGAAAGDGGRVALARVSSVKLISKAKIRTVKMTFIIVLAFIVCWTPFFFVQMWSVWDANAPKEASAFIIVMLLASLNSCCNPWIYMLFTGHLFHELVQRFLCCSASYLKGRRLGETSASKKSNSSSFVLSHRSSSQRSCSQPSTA
Description: Oxytocin Receptor Binding Assay
Confluent HEK-293 cells with transiently expressing recombinant human oxytocin receptors were centrifuged at 750×g and at room temperature for 5 minutes. The residue was taken up in ice-cold lysis buffer (50 mM Tris-HCl, 10% glycerol, pH 7.4 and Roche Complete Protease Inhibitor) and subjected to an osmotic shock at 4° C. for 20 minutes. The lyzed cells were then centrifuged at 750×g and at 4° C. for 20 minutes, the residue was taken up in incubation buffer, and aliquots of 10^7 cells/ml were prepared. The aliquots were frozen at −80° C. until used.
On the day of the experiment, the cells were thawed, diluted with incubation buffer and homogenized using a Multipette Combitip (Eppendorf, Hamburg). […] The nonspecific binding was determined with 10^−6 M oxytocin (Bachem AG, H2510). Determinations in triplicate were set up. Bound and free radioligand were separated by filtration under vacuum with Whatman GF/B glass fibre filters using a Skatron cell harvester 7000. The bound radioactivity was determined by liquid scintillation measurement in a Tricarb beta counter, model 2000 or 2200CA (Packard).

[3] = target: human vasopressin V1a receptor (Homo sapiens, UniProt P37288); assay: Vasopressin V1a receptor binding assay; details: selectivity for V1b over V1a, quotient of Ki values
human vasopressin V1a receptor, sequence (P37288 whole entry): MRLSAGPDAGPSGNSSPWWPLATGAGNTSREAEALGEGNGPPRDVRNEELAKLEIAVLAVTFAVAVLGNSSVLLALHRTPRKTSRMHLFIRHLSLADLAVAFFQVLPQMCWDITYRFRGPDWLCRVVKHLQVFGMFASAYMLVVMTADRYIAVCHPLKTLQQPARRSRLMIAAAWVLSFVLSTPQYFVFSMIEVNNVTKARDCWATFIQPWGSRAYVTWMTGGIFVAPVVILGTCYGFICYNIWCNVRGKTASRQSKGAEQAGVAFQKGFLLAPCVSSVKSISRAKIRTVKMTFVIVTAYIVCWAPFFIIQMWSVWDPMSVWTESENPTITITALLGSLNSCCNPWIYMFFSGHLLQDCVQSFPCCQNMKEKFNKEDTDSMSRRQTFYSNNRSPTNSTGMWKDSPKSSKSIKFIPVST

[4] = Determination of the microsomal half-life / microsomal clearance (human); type: in vitro ADME; details: pH 7.4; human liver microsomes, 0.5 μM test substance, 0.25 mg microsomal protein/ml; read-out: Human Mikrosomal Clearance
Description: The metabolic stability of a compound can be determined, for example, by incubating a solution of this compound with liver microsomes from particular species (for example rat, dog or human) and determining the half-life of the compound under these conditions (RS Obach, Curr Opin Drug Discov Devel. 2001, 4, 36-44). It is possible to conclude from an observed larger half-life that the metabolic stability of the compound is improved. The stability in the presence of human liver microsomes is of particular interest since it makes it possible to predict the metabolic degradation of the compound in the human liver. Compounds with increased metabolic stability (determined in the liver microsome test) are therefore probably also degraded more slowly in the liver. The slower metabolic degradation in the liver can lead to higher and/or longer-lasting concentrations (effective levels) of the compound in the body, so that the elimination half-life of the compounds according to the invention is increased. Increased and/or longer-lasting effective levels may lead to a better efficacy of the compound in the treatment or prophylaxis of various vasopressin-dependent diseases. An improved metabolic stability may additionally lead to an increased bioavailability after oral administration, because the compound is subjected, after being absorbed in the intestine, to less metabolic degradation in the liver (so-called first pass effect). An increased oral bioavailability may, because the concentration (effective level) of the compound is increased, lead to a better efficacy of the compound after oral administration.
Determination of the Microsomal Half-Life:
The metabolic stability of the compounds of the invention was determined in the following assay.
The test substances are incubated in a concentration of 0.5 μM as follows:
0.5 μM test substance is preincubated together with liver microsomes of various species (rat, human or other species) (0.25 mg of microsomal protein/ml) in 0.05M potassium phosphate buffer pH 7.4 in microtitre plates at 37° C. for 5 min. The reaction is started by adding NADPH (1 mg/ml). 50 μl aliquots are taken after 0, 5, 10, 15, 20 and 30 min, and the reaction is stopped immediately with the same volume of acetonitrile and cooled down. The samples are frozen until analyzed. Using MSMS, the remaining concentration of undegraded test substance is determined. From the […] of the test substance signal/time unit curve, the half-life (T½) is determined, where the half-life of the test substance can be calculated, assuming first order kinetics, from the decrease in the concentration of the compound with time. The microsomal clearance (mCl) is calculated as mCl=In2/T½/(content of microsomal protein in mg/ml)×1000 [ml/min/mg] (modified according to the literature references: Di, The Society for Biomoleculaur Screening, 2003, 453-462; Obach, DMD, 1999 vol 27. N 11, 1350-1359).

SMILES	Ki [1]	Ki(h-OT)/Ki(h-V1b) [2]	Ki(h-V1a)/Ki(h-V1b) [3]	microsomal CLint at 0.5 μM [4]
CCOc1ncccc1C1(NC(=O)N2CCN(C3CCN(C)CC3)CC2)C(=O)N(S(=O)(=O)c2ccccc2OC)c2ccc(C#N)cc21 (racemic) [Example 2, N-{5-Cyano-3-(2-ethoxypyridin-3-yl)-1-[(2-methoxyphenyl)sulphonyl]-2-oxo-2,3-dihydro-1H-indol-3-yl}-4-(1-methylpiperidin-4-yl)piperazine-1-carboxamide]	10 to 50 nM	+++ (>50)	+++ (>100)	
CCOc1ccccc1S(=O)(=O)N1C(=O)C(NC(=O)N2CCN(C3CCN(C)CC3)CC2)(c2cccnc2OCC)c2cc(C#N)ccc21.O=C(O)C(F)(F)F (racemic) [Example 3, N-[5-Cyano-1-[(2-ethoxyphenyl)sulphonyl]-3-(2-ethoxypyridin-3-yl)-2-oxo-2,3-dihydro-1H-indol-3-yl]-4-(1-methylpiperidin-4-yl)piperazine-1-carboxamide trifluoroacetate]	10 to 50 nM	+++ (>50)	+++ (>100)	
CCOc1ncccc1C1(NC(=O)N2CCN(C3CCN(C)CC3)CC2)C(=O)N(S(=O)(=O)c2ccc(OC)cc2)c2ccc(C#N)cc21 (racemic) [Example 5, N-[5-Cyano-3-(2-ethoxypyridin-3-yl)-1-[(4-methoxyphenyl)sulphonyl]-2-oxo-2,3-dihydro-1H-indol-3-yl]-4-(1-methylpiperidin-4-yl)piperazine-1-carboxamide]				< 60 µL/min/mg
CCOc1ncccc1C1(NC(=O)N2CCC(N3CCN(C)CC3)CC2)C(=O)N(S(=O)(=O)c2ccccc2OC)c2ccc(C#N)cc21 (racemic) [Example 32, N-[5-Cyano-3-(2-ethoxypyridin-3-yl)-1-[(2-methoxyphenyl)sulphonyl]-2-oxo-2,3-dihydro-1H-indol-3-yl]-4-(4-methylpiperazin-1-yl)piperidine-1-carboxamide]	10 to 50 nM	+++ (>50)	+ (15-50)	
CCOc1ncccc1C1(NC(=O)N2CCC(N3CCN(C)CC3)CC2)C(=O)N(S(=O)(=O)c2ccccc2)c2ccc(C#N)cc21 (racemic) [Example 34, N-[5-Cyano-3-(2-ethoxypyridin-3-yl)-2-oxo-1-(phenylsulphonyl)-2,3-dihydro-1H-indol-3-yl]-4-(4-methylpiperazin-1-yl)piperidine-1-carboxamide]				< 60 µL/min/mg

Next, values leading:

Ki [1]	Ki(h-OT)/Ki(h-V1b) [2]	Ki(h-V1a)/Ki(h-V1b) [3]	microsomal CLint at 0.5 μM [4]	SMILES
< 10 nM	+++ (>50)	+++ (>100)		CCCN1CCN(C2CCN(C(=O)NC3(c4cccnc4OCC)C(=O)N(S(=O)(=O)c4ccc(OC)cc4OC)c4ccc(C#N)cc43)CC2)CC1 (racemic) [Example 43, N-[5-Cyano-1-[(2,4-dimethoxyphenyl)sulphonyl]-3-(2-ethoxypyridin-3-yl)-2-oxo-2,3-dihydro-1H-indol-3-yl]-4-(4-propylpiperazin-1-yl)piperidine-1-carboxamide]
< 10 nM	+++ (>50)	+++ (>100)		CCOc1ncccc1C1(NC(=O)N2CCC(C3CCN(C)CC3)CC2)C(=O)N(S(=O)(=O)c2ccc(OC)cc2OC)c2ccc(C#N)cc21 (racemic) [Example 61, N-[5-Cyano-1-[(2,4-dimethoxyphenyl)sulphonyl]-3-(2-ethoxypyridin-3-yl)-2-oxo-2,3-dihydro-1H-indol-3-yl]-1′-methyl-4,4′-bipiperidine-1-carboxamide]
< 10 nM	+++ (>50)	+++ (>100)		CCOc1ncccc1C1(NC(=O)N2CCC(C3CCN(CC)CC3)CC2)C(=O)N(S(=O)(=O)c2ccc(OC)cc2OC)c2ccc(C#N)cc21.O=C(O)C(F)(F)F (racemic) [Example 67, N-[5-Cyano-1-[(2,4-dimethoxyphenyl)sulphonyl]-3-(2-ethoxypyridin-3-yl)-2-oxo-2,3-dihydro-1H-indol-3-yl]-1′-ethyl-4,4′-bipiperidine-1-carboxamide trifluoroacetate]
	+++ (>50)	+++ (>100)		CCOc1ncccc1C1(NC(=O)N2CCC(C3CCN(C)CC3)CC2)C(=O)N(S(=O)(=O)c2ccc(OC)cc2OC)c2ccc(C#N)cc21.O=C(O)C(F)(F)F (single isomer, unassigned) [Example 61B, (−)-N-[5-Cyano-1-[(2,4-dimethoxyphenyl)sulphonyl)-3-(2-ethoxypyridin-3-yl)-2-oxo-2,3-dihydro-1H-indol-3-yl]-1′-methyl-4,4′-bipiperidine-1-carboxamide trifluoroacetate]
< 10 nM	+++ (>50)	+++ (>100)		CCOc1ncccc1C1(NC(=O)N2CCC(C3CCN(CC)CC3)CC2)C(=O)N(S(=O)(=O)c2ccc(OC)cc2OC)c2ccc(C#N)cc21.O=C(O)C(F)(F)F (single isomer, unassigned) [Example 67B, (−)-N-[5-Cyano-1-[(2,4-dimethoxyphenyl)sulphonyl]-3-(2-ethoxypyridin-3-yl)-2-oxo-2,3-dihydro-1H-indol-3-yl]-1′-ethyl-4,4′-bipiperidine-1-carboxamide trifluoroacetate]
